Where two headings read alike, the source gives them in different places.

One experiment concerns the target T1, Btk (Homo sapiens, UniProt Q06187).
T1 construct: purified from insect cells as a full-length construct containing a N-terminal 6X-His tag; His6 (N); made in house; host or cells: insect cells (Method C)
The experiment is described as follows: Btk in vitro inhibitory activity (one of Method A TR-FRET, Method B electrophoretic mobility shift, Method C radiometric filter binding). The format is biochemical. The procedure: Example 62a: Btk In Vitro Inhibitory Activity (Method A)
Btk kinase activity is determined using a time-resolved fluorescence resonance energy transfer (TR-FRET) methodology. Measurements are performed in a reaction volume of 50 μL using 96-well assay plates. […] The reaction is quenched by the addition of 1.2 equivalents of EDTA (relative to divalent cation) in 25 μL of 1× Lance buffer (Perkin-Elmer). Streptavidin-APC (Perkin-Elmer) and Eu-labeled p-Tyr100 antibody (Perkin-Elmer) in 1× Lance buffer are added in a 25 μL volume to give final concentrations of 100 nM and 2.5 nM, respectively, and the mixture is allowed to incubate for one hour. The TR-FRET signal is measured on a multimode plate reader with an excitation wavelength (λEx) of 330 nm and detection wavelengths (λEm) of 615 and 665 nm. Activity is determined by the ratio of the fluorescence at 665 nm to that at 615 nm. For each compound, enzyme activity is measured at various concentrations of compound. Negative control reactions are performed in the absence of inhibitor in replicates of six, and two no-enzyme controls are used to determine baseline fluorescence levels. Inhibition constants, Ki(app), were obtained using the program BatchKi (Kuzmic et al. (2000), Anal. Biochem. 286:45-50). IC50s are obtained according to the equation:
IC50={Ki(app)/(1+[ATP]/Km^ATP)}+[E]total/2;
For all kinases, [ATP]=Km^ATP, [Btk]total=0.5 nM and [Lck]total=6 nM.
Example 62b: Btk In Vitro Inhibitory Activity (Method B)
Kinase activity is measured in vitro using electrophoretic mobility shift assay. The kinase reactions are assembled in a total volume of 25 μL in 384 well plates. The reactions comprise: BTK enzyme (1 nM, N-terminal His6-tagged, recombinant, full-length, human BTK purified from baculovirus Sf21 insect cell system, 293HEK, or other suitable source), inhibitor, ATP, fluorescently labeled peptide substrate (1 μM, FAM-GEEPLYWSFPAKKK-NH2) in a reaction buffer composed of 100 mM HEPES, pH7.5, 5 mM MgCl2 1 mM DTT, 0.1% bovine serum albumin, 0.01% Triton X-100, and 1% DMSO. The reaction is incubated and is quenched by the addition of termination buffer (100 mM HEPES, pH 7.5, 0.01% Triton X-100, 30 mM EDTA). The terminated reactions are analyzed using a 12 channel LabChip® 3000 microfluidic detection instrument (Caliper Life Sciences). The enzymatic phosphorylation of the peptide results in a change in net charge, enabling electrophoretic separation of product from substrate peptide. As substrate and product peptides are separated, two peaks of fluorescence are observed. Change in the relative fluorescence intensity of the substrate and product peaks is the parameter measured, reflecting enzyme activity. In the presence of an inhibitor, the ratio between product and substrate is altered: the signal of the product decreases, while the signal of the substrate increases.
Activity in each sample is determined as the product to sum ratio (PSR):P/(S+P), where P is the peak height of the product peptide and S is the peak height of the substrate peptide. For each compound, enzyme activity is measured at various concentrations (12 concentrations of compound spaced by 3× dilution intervals). Negative control samples (0%—inhibition in the absence of inhibitor) and positive control samples (100%—inhibition, in the presence of 20 mM EDTA) are assembled in replicates of four and are used to calculate %—inhibition values for each inhibitor at each concentration. Percent inhibition (Pinh) is determined using following equation:
Pinh=(PSR0%−PSRinh)/(PSR0%−PSR100%)*100, where PSRinh is the product sum ratio in the presence of inhibitor, PSR0% is the average product sum ration in the absence of inhibitor and PSR100% is the average product sum ratio in 100%—inhibition control samples.
The IC50 values of inhibitors are determined by 4 parameter sigmoidal dose-response model fitting of the inhibition curves (Pinh versus inhibitor concentration) using XLfit 4 software. […]
In general terms: Mobility shift assays separate free from complexed probe on a gel.

The next experiment concerns the target T2, TEC (Homo sapiens, UniProt P42680).
T2 sequence (P42680 1-631): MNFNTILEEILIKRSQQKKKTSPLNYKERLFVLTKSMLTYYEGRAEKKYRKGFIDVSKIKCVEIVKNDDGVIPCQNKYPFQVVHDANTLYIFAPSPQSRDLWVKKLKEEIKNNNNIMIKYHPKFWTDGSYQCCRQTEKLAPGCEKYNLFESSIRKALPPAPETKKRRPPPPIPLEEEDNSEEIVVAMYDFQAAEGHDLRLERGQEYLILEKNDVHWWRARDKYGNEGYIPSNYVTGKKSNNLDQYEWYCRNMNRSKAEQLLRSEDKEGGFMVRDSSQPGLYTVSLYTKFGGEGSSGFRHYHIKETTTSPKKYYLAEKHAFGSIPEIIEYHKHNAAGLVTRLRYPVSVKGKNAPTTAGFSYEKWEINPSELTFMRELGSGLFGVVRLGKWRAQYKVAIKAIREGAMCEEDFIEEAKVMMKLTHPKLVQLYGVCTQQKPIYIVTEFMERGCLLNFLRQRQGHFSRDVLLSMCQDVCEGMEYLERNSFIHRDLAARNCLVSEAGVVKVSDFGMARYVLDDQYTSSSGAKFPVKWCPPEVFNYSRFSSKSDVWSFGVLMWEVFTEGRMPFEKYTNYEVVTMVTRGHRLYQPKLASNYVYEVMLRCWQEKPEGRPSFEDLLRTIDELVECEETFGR
Nature of the experiment: Inhibition of a panel of kinases (in vitro HotSpot kinase assay, 33P-ATP, 1 μM ATP). The format is biochemical. Conditions: for IC50: HotSpot kinase assay, 1 μM ATP; for TEC/Btk: ratio of TEC IC50 to Btk IC50 (selectivity). The procedure: Example 63: Inhibition of a Panel of Kinases The degree of inhibition of a panel of kinases is determined using the in vitro HotSpot kinase assay (purified enzymes, ^33P-ATP, an appropriate substrate and 1 μM ATP).

Setting [1] is: wild-type Btk, read-out: Btk-WT IC50.
The mark [2] stands for this setting: method is one of A, B or C, not stated which, read-out: IC50 values against Btk.

T1 sequence (Q06187 whole entry): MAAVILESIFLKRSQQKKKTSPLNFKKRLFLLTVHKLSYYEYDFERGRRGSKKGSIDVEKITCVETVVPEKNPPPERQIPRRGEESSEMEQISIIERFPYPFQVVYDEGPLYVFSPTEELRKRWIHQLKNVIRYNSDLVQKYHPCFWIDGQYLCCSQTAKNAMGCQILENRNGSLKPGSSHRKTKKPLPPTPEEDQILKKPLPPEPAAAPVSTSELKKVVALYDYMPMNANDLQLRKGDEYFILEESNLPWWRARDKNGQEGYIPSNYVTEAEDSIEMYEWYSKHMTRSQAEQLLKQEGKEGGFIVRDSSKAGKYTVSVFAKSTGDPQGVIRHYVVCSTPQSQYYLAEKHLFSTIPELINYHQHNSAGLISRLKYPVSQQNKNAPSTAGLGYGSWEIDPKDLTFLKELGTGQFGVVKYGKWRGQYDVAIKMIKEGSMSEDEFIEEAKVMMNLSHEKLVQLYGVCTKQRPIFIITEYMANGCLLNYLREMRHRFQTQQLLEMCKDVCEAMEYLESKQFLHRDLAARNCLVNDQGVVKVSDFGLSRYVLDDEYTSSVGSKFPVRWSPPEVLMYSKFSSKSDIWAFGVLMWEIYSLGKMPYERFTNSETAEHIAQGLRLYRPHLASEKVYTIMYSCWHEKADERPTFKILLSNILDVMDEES

Broadly, the IC50 is the concentration at which inhibition is half-maximal. Consider `C[C@@H]1[C@H](Nc2n[nH]c3nccc(-c4ccc(CNC(=O)c5noc(C(C)(C)C)n5)c(F)c4)c23)CCCN1C(=O)NCC(F)(F)F` [Example 137, (2R,3R)-3-{[4-(4-{[(5-tert-butyl-1,2,4-oxadiazol-3-yl)formamido]methyl}-3-fluorophenyl)-1H-pyrazolo[3,4-b]pyridin-3-yl]amino}-2-methyl-N-(2,2,2-trifluoroethyl)piperidine-1-carboxamide], for which the IC50 at Btk (setting [1]) and at TEC was more than 10000 nM each time.
In the case of `C[C@@H]1[C@H](Nc2n[nH]c3nccc(-c4ccc(CNC(=O)c5noc(C(C)(C)C)n5)c(F)c4)c23)CCCN1CC#N` [Example 142, 5-tert-butyl-N-{[4-(3-{[(2R,3R)-1-(cyanomethyl)-2-methylpiperidin-3-yl]amino}-1H-pyrazolo[3,4-b]pyridin-4-yl)-2-fluorophenyl]methyl}-1,2,4-oxadiazole-3-carboxamide], the IC50 at Btk (setting [1]) stood at 21.2 nM; against TEC, 4170 nM. Moreover, on TEC, the TEC/Btk stood at 197.
The like results for `CC(C)(C)c1nc(C(=O)NCc2ccc(-c3ccnc4[nH]nc(O[C@@H]5CCN(C=O)C5)c34)cc2F)no1` [Example 273, 5-tert-butyl-N-[(2-fluoro-4-{3-[(1-formylpyrrolidin-3-yl)oxy]-1H-pyrazolo[3,4-b]pyridin-4-yl}phenyl)methyl]-1,2,4-oxadiazole-3-carboxamide] were, in that order, 3.8 nM, 1090 nM and 287.
The matching figures for `CC(C)(O)c1ccc(C(=O)NCc2ccc(-c3ccnc4[nH]nc(N[C@H]5CC[C@H](O)CC5)c34)cc2F)cc1` [Compound 26, N-{[2-fluoro-4-(3-{[(1r,4r)-4-hydroxycyclohexyl]amino}-1H-pyrazolo[3,4-b]pyridin-4-yl)phenyl]methyl}-4-(2-hydroxypropan-2-yl)benzamide]: 932 nM, more than 10000 nM and more than 100.
Take `CC(C)(C)c1cc(C(=O)NCc2ccc(-c3ccnc4[nH]nc(N[C@H]5CC[C@H](O)CC5)c34)cc2F)no1` [Compound 27, 5-tert-butyl-N-{[2-fluoro-4-(3-{[(1r,4r)-4-hydroxycyclohexyl]amino}-1H-pyrazolo[3,4-b]pyridin-4-yl)phenyl]methyl}-1,2-oxazole-3-carboxamide]: the IC50 on Btk (setting [1]) was 44.2 nM. On TEC, the IC50 was determined as 6260 nM and the TEC/Btk is given as 142.
Regarding `CC1(C)Cc2cc3n(c2C1)CCN(c1nccc(-c2ccnc4[nH]nc(NC5CCNC5)c24)c1CO)C3=O` (centres unmarked) [Example 297, 2-[3-(hydroxymethyl)-4-{3-[(pyrrolidin-3-yl)amino]-1H-pyrazolo[3,4-b]pyridin-4-yl}pyridin-2-yl]-7,7-dimethyl-3,4,7,8-tetrahydro-2H-cyclopenta[4,5]pyrrolo[1,2-a]pyrazin-1(6H)-one], the IC50 at Btk (setting [1]) stood at 323 nM.
Same read-out and setting: next, `C[C@H]1CC[C@@H](N)CN1c1n[nH]c2nccc(-c3ccc(CNC(=O)c4cc(C(C)(C)C)on4)c(F)c3)c12` [Example 322, N-[(4-{3-[(2S,5R)-5-amino-2-methylpiperidin-1-yl]-1H-pyrazolo[3,4-b]pyridin-4-yl}-2-fluorophenyl)methyl]-5-tert-butyl-1,2-oxazole-3-carboxamide]: 156 nM.
On to `C=CC(=O)N1CC[C@@H](Nc2n[nH]c3nccc(-c4cccc(-n5ccc6cc(C7CC7)cc(F)c6c5=O)c4CO)c23)C1` [Example 18, 6-cyclopropyl-8-fluoro-2-[2-(hydroxymethyl)-3-(3-{[(3R)-1-(prop-2-enoyl)pyrrolidin-3-yl]amino}-1H-pyrazolo[3,4-b]pyridin-4-yl)phenyl]-1,2-dihydroisoquinolin-1-one], for which the IC50 on Btk (setting [2]) is less than 10 nM.
The same measure, in the same setting: next, `C=CC(=O)N1CC[C@@H](Nc2n[nH]c3nccc(-c4ccc(CNC(=O)c5ccc(C)cc5)c(F)c4)c23)C1` [Example 34, N-{[2-fluoro-4-(3-{[(3R)-1-(prop-2-enoyl)pyrrolidin-3-yl]amino}-1H-pyrazolo[3,4-b]pyridin-4-yl)phenyl]methyl}-4-methylbenzamide]: less than 10 nM; `C=CC(=O)N1CC[C@@H](Nc2n[nH]c3nccc(-c4ccc(CNC(=O)c5ccc(C(C)(C)C)cc5)c(F)c4)c23)C1` [Example 6, 4-tert-butyl-N-{[2-fluoro-4-(3-{[(3R)-1-(prop-2-enoyl)pyrrolidin-3-yl]amino}-1H-pyrazolo[3,4-b]pyridin-4-yl)phenyl]methyl}benzamide]: less than 10 nM.
Regarding `CN1CCN(c2n[nH]c3nccc(-c4ccc(CNC(=O)c5nc(C(C)(C)C)no5)c(F)c4)c23)C(=O)C1=O` [Example 381, 3-tert-butyl-N-({2-fluoro-4-[3-(4-methyl-2,3-dioxopiperazin-1-yl)-1H-pyrazolo[3,4-b]pyridin-4-yl]phenyl}methyl)-1,2,4-oxadiazole-5-carboxamide], the IC50 at Btk (setting [1]) was 183 nM.
Turning to `C=CC(=O)N1CC[C@@H](Nc2n[nH]c3nccc(-c4ccc(C5(NC(=O)c6noc(C(C)(C)C)n6)CC5)cc4)c23)C1` [Example 4, 5-tert-butyl-N-{1-[4-(3-{[(3R)-1-(prop-2-enoyl)pyrrolidin-3-yl]amino}-1H-pyrazolo[3,4-b]pyridin-4-yl)phenyl]cyclopropyl}-1,2,4-oxadiazole-3-carboxamide], the IC50 on Btk (setting [2]) was less than 10 nM.
For `CC(C)Cc1cc(C(=O)NCc2ccc(-c3ccnc4[nH]nc(N[C@@H]5CCCN(C(=O)N(C)C)[C@@H]5C)c34)cc2F)no1` [Example 306, (2R,3R)-3-({4-[3-fluoro-4-({[5-(2-methylpropyl)-1,2-oxazole-3-carbonyl]amino}methyl)phenyl]-1H-pyrazolo[3,4-b]pyridin-3-yl}amino)-N,N,2-trimethylpiperidine-1-carboxamide], the IC50 at Btk (setting [1]) stood at 531 nM.
On the same count and under the same terms, next, `C[C@H](NC(=O)c1noc(C(C)(C)C)n1)c1ccc(-c2ccnc3[nH]nc(N[C@@H]4CCNC4)c23)cc1F` [Example 290, 5-tert-butyl-N-{(1S)-1-[2-fluoro-4-(3-{[(3R)-pyrrolidin-3-yl]amino}-1H-pyrazolo[3,4-b]pyridin-4-yl)phenyl]ethyl}-1,2,4-oxadiazole-3-carboxamide]: 81.4 nM.

The values are drawn from patent US20180194762A1 (Pharmacyclics LLC, priority 2017, published 2018).
